Reference: patent US20260027073A1, “USE OF SMALL-MOLECULE COMPOUND HAVING NAPHTHYLAMINE STRUCTURE” (HANGZHOU PHECDAMED CO., LTD., priority 2023, published 2026)

Assays:
[1] = system: Mouse Model of Chemotherapy-Induced POF; test: Chemotherapy (cyclophosphamide)-induced premature ovarian failure; type: in vivo, C57BL/6J mice; conditions: for body weight / ovarian coefficient (ratio of ovarian weight to body weight) / ovarian weight: 30 mg/kg oral gavage, FIG. 67; for serum FSH level / serum E2 level / BDNF level in ovarian tissues: 30 mg/kg; for serum FSH level: FIG. 68; for serum E2 level: FIG. 69; for BDNF level in ovarian tissues: FIG. 70; for effect of TJ01-013 compared with I-14-1: b553: ovarian coefficient, b560: FSH concentration, serum E2 level and BDNF level
Experimental: Eight-week-old C57BL/6J mice (weighing about 20-25 g) were selected and adaptively fed for 7 d firstly, after which they were randomly divided into three groups according to their body weights, namely, the control group (Control, n=8), the model group (Cy, treated with the solvent 0.5% CMC-Na, n=8), and the TJ01-013 treatment group (Cy+TJ01-013, 30 mg/kg TJ01-013 by oral gavage, n=8). kg TJ01-013, n=8), I-14-1 treatment group (Cy+I-14-1, 30 mg/kg I-14-1 by oral gavage, n=8). The model group and the TJ01-013 treatment group received a single intraperitoneal injection of cyclophosphamide (75 mg/kg, 200-300 μl), and the control group received a single intraperitoneal injection of an equal volume of saline. Samples were collected after 12 days of administration, and body weights, ovary weights, and levels of the serum hormones E2 and FSH of the mice were measured.
The body weight and bilateral ovarian wet weight of each group of mice were weighed with an electronic balance and an analytical balance respectively, and the ovarian organ coefficient of each group was calculated according to the body weight of mice (g) and bilateral ovarian wet weight (mg). The formula is: […]
After the experiment reached the end point, blood was collected from the orbit, and the blood was centrifuged at 12,000 g for 10 min after standing still at room temperature for 45 min, and the supernatant (serum) was taken, and the levels of E2, FSH and BDNF in serum were detected by ELISA.
The mice were euthanized after reaching the end point of the experiment, and the levels of BDNF in the ovarian tissues were assayed by ELISA after the ovaries were extracted and ground.

UUO model mice = test: UUO-induced renal fibrosis; type: in vivo
Experimental: The UUO model is currently the most widely used experimental animal model for studying renal tubulointerstitial fibrosis. By ligating a unilateral ureter to cause obstruction of the renal drainage system, leading to acute alterations in renal function and chronic damage to renal structure, it simulates renal interstitial injury caused by ureteral obstruction, which is common in clinical practice. The modeling was performed as follows: • (1) On the first day of the test, mice were given 50 mg/kg sodium pentobarbital anesthesia, after confirming that the mice were under anesthesia and preparing and disinfecting the skin, an incision of about 1 cm at 1 cm left and below of the costovertebral angle was made, the left side of the kidney was fully exposed and the ureter was sought downward along the renal hilum, and the ureter was ligated with a 6-0 nylon thread, and after ligation, the muscle and the skin layers were sutured layer by layer. In the sham group, only the kidney was exposed, but it was not ligated, and sutured directly. The experiments were divided into a sham group (Sham, oral gavage of vehicle), a model control group (vehicle, oral gavage of vehicle), a TJ01-013 10 mg/kg treatment group ([…]), and the vehicle used is 0.5% CMC-Na, administered at a dose of 10 ml/kg, and the frequency of administration was once a day. The drug was administered continuously for 7 days after UUO surgery, at the endpoint of the test, immediately after the mice were put to death, saline was perfused through the heart until the blood in the kidneys was completely drained and the kidneys were transformed from a dark red color to khaki. The operated kidney on the side was collected, the kidney was cut through the short axis of the kidney, and the kidney tissue samples were stored separately according to the requirements of the test. • (2) Renal histopathology
Kidney tissues were fixed with 4% paraformaldehyde for 48 hours, paraffin-embedded, sectioned at a thickness of 4 μm, and Masson stained. Specific experimental procedures were performed as described previously, and after sectioning and scanning the images, the results were analyzed semi-quantitatively using Image J software.
Total RNA was extracted from kidney tissue samples by Tissue RNA Rapid Extraction Kit, and the concentration and purity of RNA were determined by micro-ultraviolet spectrophotometer, and then operated according to the instruction steps of HiScript® II 1st Strand cDNA Synthesis Kit, the cDNA was reversely transcribed with 1 μg of total amount of […], followed by a 15 ul amplification system, with 5 μL of cDNA, 7.5 μL of 2×SYBR Premix Ex Taq™, 0.3 μL of each of forward and reverse primers, and the rest was supplemented with double-distilled water. The conditions of the Bio-Rad reaction were 95° C. for 5 min, denaturation at 95° C. for 10 seconds, annealing/extension at 60° C. for 30 seconds for 40 cycles, and 65° C. for 15 min. The expression of the target gene was calculated by 2-ΔΔCt relative quantification. The Ct value of the target gene was first corrected by the internal reference gene (β-actin), and then compared with the control group to derive the relative expression level. […]

[2] = system: LPS-induced sepsis in mice; test: LPS-induced sepsis survival; type: in vivo, C57 mice; conditions: 8th day; 10 mg/kg intraperitoneal once a day; LPS alone about 20%; FIG. 33
Experimental: A constructed preclinical sepsis model is a LPS-induced sepsis in mice. Injection of purified LPS into mice by intraperitoneal route or intravenous route can lead to activation of the innate immune system and simulate fulminant Gram-negative bacterial infections, the specific modeling method is as follows: 20-25 g C57 mice were selected, and 20 mg/kg LPS was injected intraperitoneally according to the body weight (the LPS was dissolved with PBS), and the experiment was divided into three groups, a model control group (LPS), a positive control treatment group (prednisone, 10 mg/kg), TJ01-013 treatment group (TJ01-013, 10 mg/kg), the mode of administration was intraperitoneal injection, the volume of administration was 5 ml/kg, the frequency of administration was once a day, and the biological deaths and changes in body weights of the mice were observed and recorded every day, and the mice were regarded as physiologically dead if their body weights decreased by 20% or more compared with that before the administration of LPS. Survival curves were plotted based on deaths observed up to 8 days after administration.

[3] = vs UUO+Vehicle, western blot, FIG. 31

## O=C(O)C[S+]([O-])c1cc(NS(=O)(=O)c2ccc(C(F)(F)F)cc2)c2ccccc2c1O (stereo not drawn) [I-14-1]
[1]
  body weight: no significant change
  ovarian coefficient (ratio of ovarian weight to body weight): significantly elevated
  ovarian weight: significantly elevated
  serum FSH level: significantly decreased
  serum E2 level: increased significantly
  BDNF level in ovarian tissues: increased significantly

## O=C(O)C[S+]([O-])c1cc(NS(=O)(=O)c2ccc(Br)cc2)c2ccccc2c1O (stereo not drawn) [I-1]
UUO model mice; 10 mg/kg TJ01-013, no significant effect vs model control 4.67%, FIG. 29
  Collagen volume fraction %, renal cortex (Masson): 5.58%
UUO model mice; 30 mg/kg TJ01-013, vs model control 4.67%, p<0.05, FIG. 29
  Collagen volume fraction %, renal cortex (Masson): 0.61%
UUO model mice; FIG. 29
  fibrosis in the renal medulla: reducing effect on fibrosis
UUO model mice; FIG. 32
  autophagic vesicles with double-layer or multi-layer membrane structure in the cell (TEM): more autophagic vesicles
UUO model mice; relative to normal and UUO, FIG. 32
  morphology of renal tubular epithelial cells and mitochondria (TEM): in between the former two
UUO model mice; vs UUO+Vehicle, FIG. 30
  Col1a1 gene mRNA expression in renal tissue: certain tendency to inhibit
  Fn1 gene mRNA expression in renal tissue: significantly reduced
UUO model mice; [3]
  collagen type I (collagen I) protein level in kidney: significantly reduced
  fibronectin FN protein level in kidney: significantly reduced
[2]
  survival rate: 80%
[1]
  body weight: no significant change
  ovarian coefficient (ratio of ovarian weight to body weight): significantly elevated
  ovarian weight: significantly elevated
  serum FSH level: significantly decreased
  serum E2 level: increased significantly
  BDNF level in ovarian tissues: increased significantly
[1]; listed as TJ01-013
  effect of TJ01-013 compared with I-14-1: more effective
[1]; listed as TJ0113
  effect of TJ01-013 compared with I-14-1: better
